# Assay: GSH arylation rate constants (NMR; UV-vis for fast warheads)
# Assay type: physicochemical
# Design: key to rate constant (k) for the reaction with GSH / k: NR = no reaction
# Conditions: for k: Table S8, rate constants obtained at pH = 7; for k change (vs ref): ratio to rate constant of 4q, acceleration (+) or deceleration (-)
# From the text: We employed nuclear magnetic resonance (NMR) and UV–vis to quantify the reactivity of our 2-SP derivatives and other representative electrophiles (Figure 2) against cysteine. NMR allowed straightforward determination of reaction rate constants through dual monitoring of the consumption of the warhead and formation of the product by integration of their respective NMR signals (Figures S1–S3). It simultaneously provided a direct readout on reaction specificity and hydrolytic stability of the warhead. All measurements were carried out in KPi buffer in the presence of 5% d^6-dmso, which is generally well-tolerated by a wide range of proteins in in vitro studies. N-acetylcysteine methylester (NACME) and L-glutathione (GSH) are useful model cysteine nucleophiles for in vitro studies of electrophilic agents.[32] Mixing reference electrophile 2-methylsulfonylpyrimidine (4q) with NACME or GSH in a 1:10 ratio (pseudo-first-order conditions) allowed extraction of accurate and reproducible second order rate constants (k).
# Figure 3 In vitro determination of electrophilic reactivity of compounds. (A) NMR assay setup for warhead/GSH reaction rate constant determination and chemoselectivity monitoring, over a 6 h time scale. Purple bead = GSH. Hydrolytic stability was determined in the same way over 36 h. d^4-Trimethylsilylpropanoate (TMSP, blue box) was used as an internal standard for monitoring the warhead solubility. Second-order reaction rate constants (k) were obtained from their pseudo-first-order counterparts (k′), by time-dependent normalized integration of the disappearing warhead signals. […] (B) Experimental second-order rate constants (y axis, log10 scale) for the reaction of representative 2-SP derivatives (left, 11 out of ca. 40 examples) and previously reported heteroarylsulfones (right) with GSH in a KPi buffer, pH 7.0, 20 °C. All rate constants were calculated as an average of at least two independent measurements. Numerical values and standard deviations at both pH 7.0 and 6.5, along with a full list of 2-SPs and other electrophile types tested, are presented in Tables S2–S6 and Figure S4. The horizontal dashed line marks the reaction rate of 2-methylsulfonylpyrimidine at pH 7.0, as a reference when comparing with other reagents (see main text).
# To establish an accurate structure–reactivity profile of 2-SP reagents, we systematically determined their reaction rate constants for the arylation of GSH by NMR, at pH 7.0 and 6.5. This was a prerequisite to (i) quantify the influence of substitution on reaction rates; (ii) accurately assess the tunability and chemoselectivity of 2-SPs for cysteine arylation; (iii) determine the influence of pH on the reaction rates to further inform on the precise reaction mechanism; and (iv) benchmark the overall performance of 2-SPs with those of previously reported fast reacting heteroarylsulfones and other common cysteine reactive warheads (Figure 2C,D).
# [1] = pH 6.5, by NMR, KPi buffer, 5% DMSO-d6
# [2] = pH 7.0, by NMR, KPi buffer, 5% DMSO-d6
Structure (SMILES),rate constant (k) for the reaction with GSH [1],rate constant (k) for the reaction with GSH [2],further results
Cc1cc(C)nc(Cl)n1 [1a],NR,NR,–
COc1ccnc(Cl)n1 [1b],NR,NR,–
Cc1ccnc(Cl)n1 [1c],NR,NR,–
O=C(O)c1ccnc(Cl)n1 [1d],NR,NR,–
Clc1nccc(-c2ccccc2)n1 [1e],NR,NR,–
COc1cc(OC)nc(Cl)n1 [1f],NR,NR,–
Nc1ccnc(Cl)n1 [1g],NR,NR,–
O=C(O)c1nc(Cl)ncc1Cl [1h],NR,NR,–
O=C(O)c1nc(Cl)ncc1Br [1i],NR,NR,–
NC(=O)c1ccnc(Cl)n1 [1j],NR,NR,–
COC(=O)c1ccnc(Cl)n1 [1k],NR,NR,–
FC(F)(F)c1ccnc(Cl)n1 [1l],0.00045 M⁻¹ s⁻¹,0.001 ± 0.0005 M⁻¹ s⁻¹,–
Nc1cnc(Cl)nc1 [1m],NR,NR,–
COc1cnc(Cl)nc1 [1n],NR,NR,–
Cc1cnc(Cl)nc1 [1o],NR,NR,–
Clc1ncc(-c2ccccc2)cn1 [1p],NR,NR,–
Clc1ncccn1 [1q],NR,NR,"reactivity with GSH (in words) (KPi buffer, up to 6 h): failed to induce observable arylation of GSH; k: NR"
Fc1cnc(Cl)nc1 [1r],NR,NR,–
Clc1cnc(Cl)nc1 [1s],Ca. 0.07 mM-1.s-1,Ca. 0.26 mM-1.s-1,–
Clc1ncc(Br)cn1 [1t],Ca. 0.025 mM-1.s-1,Ca. 0.15 mM-1.s-1,–
O=C(O)c1cnc(Cl)nc1 [1v],Ca. 0.14 mM-1.s-1,Ca. 0.65 mM-1.s-1,–
O=[N+]([O-])c1cnc(Cl)nc1 [1w],NR,NR,–
COC(=O)c1cnc(Cl)nc1 [1y],Ca. 11 mM-1.s-1,Ca. 55 mM-1.s-1,rate relative to 5-NO2-MSBT / nitro-MSBT (10) (in words) (in vitro): an order of magnitude
CSc1nc(C)cc(C)n1 [2a],NR,NR,–
COc1ccnc(SC)n1 [2b],NR,NR,–
CSc1nccc(C)n1 [2c],NR,NR,–
CSc1nccc(C(=O)O)n1 [2d],NR,NR,–

Structure (SMILES),rate constant (k) for the reaction with GSH [1],rate constant (k) for the reaction with GSH [2],further results
CSc1nccc(-c2ccccc2)n1 [2e],NR,NR,–
COc1cc(OC)nc(SC)n1 [2f],NR,NR,–
CSc1nccc(N)n1 [2g],NR,NR,–
CSc1ncc(Cl)c(C(=O)O)n1 [2h],NR,NR,–
CSc1ncc(Br)c(C(=O)O)n1 [2i],NR,NR,–
CSc1nccc(C(N)=O)n1 [2j],NR,NR,–
COC(=O)c1ccnc(SC)n1 [2k],NR,NR,–
CSc1nccc(C(F)(F)F)n1 [2l],NR,NR,–
CSc1ncc([N+](=O)[O-])cn1 [2m],NR,NR,–
COc1cnc(SC)nc1 [2n],NR,NR,–
CSc1ncc(C)cn1 [2o],NR,NR,–
CSc1ncccn1 [2q],NR,NR,k: NR
CSc1ncc(F)cn1 [2r],NR,NR,–
CSc1ncc(Cl)cn1 [2s],NR,NR,–
CSc1ncc(Br)cn1 [2t],NR,NR,–
CSc1ncc(C(F)(F)F)cn1 [2x],NR,NR,–
COC(=O)c1cnc(SC)nc1 [2y],NR,Ca. 0.020 mM-1.s-1,–
CC(C)(C)Sc1ncccn1 [3a],–,NR,–
CCCCSc1ncccn1 [3c],–,NR,–
c1ccc(Sc2ncccn2)cc1 [3d],–,NR,–
CS(=O)(=O)c1ncc(Cl)c(C(=O)O)n1 [4h],–,–,k change (vs ref) (pH 7.0): +7 fold
CS(=O)(=O)c1ncc(F)cn1 [4r],Multiple,Multiple,–
"CS(=O)(=O)c1nc2ccc([N+](=O)[O-])cc2s1 [compound 10, 2-(methylsulfonyl)-6-nitrobenzo[d]thiazole, reference compound]",–,–,"rate constant (k) for the reaction with GSH (pH 6.5, measured by UV titrations): 290 ± 130 M⁻¹ s⁻¹; second order rate constant k with GSH (pH 7.0, KPi buffer): ≈ 1200 M^–1 s^–1; k change (vs ref) (pH 7.0): +44,000 fold"
"Fc1ncccn1 [compound 13, reference compound]",–,NR,k: NR
"Brc1ncccn1 [compound 14, reference compound]",–,–,k: NR
"Oc1ncccn1 [compound 16, reference compound]",–,NR,–
"Nc1ncccn1 [compound 17, reference compound]",–,NR,–

# — article PMC10515483, “Structure–Reactivity Studies of 2-Sulfonylpyrimidines Allow Selective Protein Arylation” (Bioconjugate Chemistry, 2023)
